# Experimental data from patent US8835632B2, “Methods to increase the photostability of dyes” (The University of North Carolina at Chapel Hill, priority 2007, dated 2014).
# Experiments:
# [1] = from C6H6 to MeOH; cited from earlier work
# [2] = Relative rate of reaction with chemically generated singlet oxygen in DMSO; format: physicochemical; details: 2.5 mM, 1O2 from 1,4-dimethylnaphtalene-1,4-endoperoxide
# Outline: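 Dyes in DMSO exposed to a fixed amount of ^1O2 (2.5 mM solutions) generated by decomposition of 1,4-dimethylnaphthalene-1,4-endoperoxide. Relative rate constants kr (rel) for product formation derived by comparing percent conversions.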
# [3] = Absorption and fluorescence spectra, extinction coefficient, fluorescence quantum yield; format: physicochemical
# [4] = Methylene Blue-sensitized photobleaching (reactivity of the dyes with singlet oxygen); format: physicochemical; details: methanol, [dye]=[Methylene Blue]=3.33 μM, filtered light λ>630 nm, 40 min
# Procedure: The reactivity of the dyes with singlet oxygen also was examined to confirm that the cyano substituent group affected photobleaching mediated by singlet oxygen. Singlet oxygen was generated using the photosensitizer Methylene Blue (MB), which has a high quantum yield for singlet oxygen production and allows singlet oxygen to be introduced into the system without excitation of the merocyanine dye. See Murov and Carmichael, Handbook of Photochemistry, 2nd ed.; Dekker: New York (1993).
# 15 mL of a methanol solution containing dye (3.33 μM) and Methylene Blue (3.33 μM) were placed in a 20-mL Borosilicate Glass Scintillation Vial (Fisher Scientific). The vial was illuminated with the light of a 90 W halogen reflector lamp (120 V, 1280 Lumens, 12 Degree Beam Spread). […] The length of the filtering solution was 1.0 cm. The distance between the vial and the lamp was 11.0 cm. A fan (120 V, 150 mm)) was used to cool the vial. At selected time intervals a sample was removed and the sample absorbance spectrum was obtained on a Hewlett-Packard 8453 diode array spectrophotometer (Agilent, Technologies, Inc.). Rate constants of dye photobleaching were obtained from a plot of ln(A) vs. time (see Table 5).
# Again, without wishing to be bound to any one particular theory, the greater reactivity of S-SO vs. I-SO toward singlet oxygen can be attributed to the greater electron donating capacity of the benzothiazole moiety relative to the indolenine ring system.
# [5] = Photobleaching under constant illumination from a halogen tungsten lamp filtered through glass; format: physicochemical
# Outline: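 Dyes exposed to constant broad-spectrum illumination from a glass-filtered halogen tungsten lamp, with roughly equal intensity across about 600 nm to about 650 nm, to assess photobleaching.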
compound,measurement,setting,value
"CN1/C(=C/C=C/C=C2/C(=O)c3ccccc3S2(=O)=O)C(C)(C)c2ccccc21 [I-SO, (2Z)-2-[(2E,4E)-4-(1,3,3-trimethyl-1,3-dihydro-2H-indol-2-ylidene)but-2-en-1-ylidene]-1-benzothiophen-3(2H)-one 1,1-dioxide, reference compound]",Absorption wavelength shift,[1],15 nm
same,Emission wavelength shift,[1],12 nm
same,kr(rel) (relative rate constants for product formation during reaction with singlet oxygen produced chemically),[2],5.24
same,Absorbance λmax,[3]; Butanol (BuOH),587 nm
same,Emission λmax,[3]; Butanol (BuOH),618 nm
same,Extinction coefficient ε,[3]; Butanol (BuOH),134000
same,Fluorescence quantum yield Φ,[3]; Butanol (BuOH),0.2
same,Absorption energy Eabs Exp,[3]; C6H6,2.172 eV
same,Emission energy Eem Exp,[3]; C6H6,2.056 eV
same,Absorption energy Eabs Exp,[3]; MeOH,2.116 eV
same,Emission energy Eem Exp,[3]; MeOH,2.016 eV
same,Absorbance λmax,[3]; Methanol (MeOH),586 nm
same,Emission λmax,[3]; Methanol (MeOH),615 nm
same,Extinction coefficient ε,[3]; Methanol (MeOH),143000
same,Fluorescence quantum yield Φ,[3]; Methanol (MeOH),0.03
same,Observed absorption (ε),"[3]; Table 10, BuOH",(134000)
same,Observed absorption λmax,"[3]; Table 10, BuOH",587 nm
same,Observed absorption (ε),"[3]; Table 10, C6H6",(109000)
same,Observed absorption λmax,"[3]; Table 10, C6H6",571 nm
same,Observed absorption (ε),"[3]; Table 10, DMF",(143000)
same,Observed absorption λmax,"[3]; Table 10, DMF",586 nm
same,Observed absorption (ε),"[3]; Table 10, MeOH",(143000)
same,Observed absorption λmax,"[3]; Table 10, MeOH",586 nm
same,Observed absorption (ε),"[3]; Table 10, OcOH",(125000)
same,Observed absorption λmax,"[3]; Table 10, OcOH",587 nm
same,Absorption Exp wavelength,"[3]; Table 12, C6H6",571 nm
same,Absorption Exp wavelength,"[3]; Table 12, MeOH",586 nm
same,Observed emission (Φ),"[3]; Table 15, BuOH",0.54
same,Observed emission λmax,"[3]; Table 15, BuOH",618 nm
same,Observed emission (Φ),"[3]; Table 15, C6H6",0.42
same,Observed emission λmax,"[3]; Table 15, C6H6",603 nm
same,Observed emission (Φ),"[3]; Table 15, DMF",0.97
same,Observed emission λmax,"[3]; Table 15, DMF",615 nm
same,Observed emission (Φ),"[3]; Table 15, MeOH",0.08
same,Observed emission λmax,"[3]; Table 15, MeOH",615 nm
same,Observed emission (Φ),"[3]; Table 15, OcOH",0.98
same,Observed emission λmax,"[3]; Table 15, OcOH",617 nm
same,Suppression of extinction coefficient by introduction of the cyano-group,[3]; in methanol,62%
same,Bleaching on irradiation of Methylene Blue,[4],27%
same,kph * 10^6 (absolute rate of photobleaching),[5]; C6H6,1.11 s^−1
same,kph(rel) (relative rate of photobleaching),"[5]; C6H6, with respect to standard I-SO in C6H6",1.00
same,kph * 10^6 (absolute rate of photobleaching),[5]; MeOH,0.53 s^−1
same,kph(rel) (relative rate of photobleaching),"[5]; MeOH, with respect to standard I-TBA in MeOH",1.56
